According to patent US6759431B2, “Compositions and methods for treating or preventing diseases of body passageways” (Angiotech Pharmaceuticals, Inc., priority 1996, dated 2004):
Values joined by “and” are separate entries in the source; they are usually repeats but may differ in a detail not shown here. Identical values can stand only once. Like-named read-outs stand apart in the source and are kept apart here. Values belong to the compound of their own block, whether it stands above or below them.

Key:
[1] = tested on: HT-29 colon, MCF-7 breast and SKMES1 non-small cell lung human tumor cell lines; experiment: Radiometric (Bactec) cytotoxicity, tumor cell lines; type: cell-based; conditions: continuous exposure
Procedure: A. Human Tumor Cell Lines The HT-29 colon, MCF-7 breast and SKMES1 non-small cell lung human tumor cell lines were obtained from the American Type Culture Collection. The HT-29 colon cell line was cultured in RPMI 1640 with 10% heat inactivated fetal bovine serum (HIFBS), the MCF-7 breast cell line in Iscove's modified Eagles medium with 5% HIFBS plus 10^-9 M insulin, and the SKMES1 lung cell line in Eagle's minimal essential medium with 10% non-heat inactivated FBS.
(§1) The Bactec system (Johnston Laboratories, Towson, Md.) is based on a clinical instrument which was developed to detect bacteria in blood cultures and has been used to screen for new antineoplastic agents. This radiometric system is a rapid, semiautomated system which utilizes the inhibition of the conversion of ^14C glucose to […] as an index of cytotoxicity. The Bactec machine automatically flushes out the ^14CO2 into an ion chamber where the signal of the radiolabelled CO2 is changed into a proportional electrical signal or growth index value on a scale of 1 to 1000. […] The growth index values of BMOV treated cells were compared to the growth index values of non-treated cells and the % survival compared to untreated controls was calculated.

[2] = tested on: normal human bone marrow cells; experiment: Radiometric (Bactec) cytotoxicity, marrow cells; type: cell-based
Procedure: Normal human bone marrow (histologically negative for tumor cells) was obtained from patients who were to have bone marrow transplants for their solid tumors but died before the marrow was used. After centrifugation, the buffy coat was removed and cells were treated with lysis buffer and washed twice with and then resuspended in RPMI 1640 with 20% HIFBS. The cells were drawn through a 25 g needle and counted.
as §1

[3] = Body weights of mice, BMOV microsphere study; type: in vivo; conditions: 0.25 mg × 1, subcutaneous, in g (unit assumed)
Procedure: (§2) Twenty of twenty-four mice were injected subcutaneously with […] of MDAY-D2 cells with density of 10×10^6/ml. On day 6 the mice were divided into 6 groups. Group 1, empty control, group 2, tumor control, group 3, were injected subcutaneously with 0.25 mg/100 ul BMOV, twice a day. Group 4 was injected IP with 20 mg PLLA microspheres containing 5 mg of BMOV. Group 5 was injected IP with 10 mg of BMOV microspheres on day 6 and day 9 respectively. Group 6 was injected intramuscularly with 10 mg of BMOV microspheres on day 6 and day 9. On day 16, the mice were sacrificed and tumors were dissected.

[4] = Solubility of vanadium complexes in PBS/ALB; type: physicochemical; conditions: 10 mM PBS with albumin, pH 7.4
Procedure: Quantitative analysis (UV/VIS spectrophometric analysis) was done with different concentrations of vanadium solutions to obtain the wavelengths of peak absorbance and the calibration equations. Solubility of vanadium was studies in 10 mM phosphate buffered saline with albumin (PBS/ALB) (pH 7.4). 1%, 5%, 10%, and 20% (% vanadium complex in PCL) of each organic complex form of vanadium were encapsulated in a biodegradable polymer PCL and/or in blends of PLC with MePEG (MW 350) to produce a polymeric drug delivery product called a “thermopaste”. In vitro release studies of the various forms of vanadium from thermopastes were carried out at 37° C. in PBS/ALB with vanadium release measured by UV/VIS absorbance spectroscopy.

MDAY-D2 tumor = experiment: BMOV microspheres, tumor growth in mice; type: in vivo; conditions: s.c.
Procedure: as §2

CAM = type: in vivo, chick; conditions: for drug loading that was toxic to the embryo: chick, in vivo
Procedure: Vinca alkaloids (vinblastine and vincristine) were ground with a pestle and mortar to reduce the particle size to below 5 microns. They were then mixed as a dry powder with polycaprolactone (molecular wt. 18000 Birmingham Polymers, AL USA). The mixture is heated to 65° C. for 5 minutes and the molten polymer/agent mixture is stirred into a smooth paste for 5 minutes. The molten paste is then taken into a 1 ml syringe and extruded to form 3 mg pellets. These pellets were then tested in the CAM assay.

[5] = Stability of paclitaxel in cyclodextrin solutions; type: physicochemical
Procedure: The solutions containing 20% HPβCD or HPγCD had pH values of 3.9 and 5.2, respectively. The stability of paclitaxel in cyclodextrin solutions was investigated by assaying paclitaxel in solutions (20 μg ml^−1) containing 10 or 20% HPγ-CD or HPβ-CD in either water or a 50:50 water-ethanol mixture at 37° C. or 55° C. at various time intervals. In addition, stability of paclitaxel in solutions (1 μg/ml) containing 1%, 2% or 5% HPβCD at 55° C. were determined.

[6] = Solubility of paclitaxel in cyclodextrin solutions; type: physicochemical; conditions: 50% HPβCD in water, 37° C.
Procedure: Excess amounts of paclitaxel (5 mg) were added to aqueous solutions containing various concentrations of γ-CD, HPγ-CD, or HPβ-CD and tumbled gently for about 24 hours at 37° C. After equilibration, aliquots of the suspension were filtered through a 0.45 μm membrane filter (Millipore), suitably diluted and analyzed using HPLC. The mobile phase was composed of a mixture of acetonitrile, methanol and water (58:5:37) at a flow rate of 1.0 ml min^−1.

[7] = Release from 50:50 ELVAX:poly-l-lactic acid microspheres, tumbling at 37° C.; type: physicochemical; conditions: 18 hours tumbling at 37° C.
Procedure: Five hundred micrograms of either paclitaxel or baccatin (a paclitaxel analog, available from Inflazyme Pharmaceuticals Inc., Vancouver, British Columbia, Canada) are dissolved in 1 ml of a 50:50 ELVAX:poly-1-lactic acid mixture in dcm. Microspheres are then prepared in a dissolution machine (Six-spindle dissolution tester, VanderKanp, Van Kell Industries Inc., U.S.A.) in triplicate at 200 rpm, 42° C., for 3 hours. Microspheres so prepared are washed twice in water and sized on the microscope.
Determination of paclitaxel encapsulation is undertaken in a uv/vis assay (uv/vis lambda max. at 237 nm, fluorescence assay at excitation 237, emission at 325 nm; Fluorescence results are presented in square brackets [ ]).

[8] = Complexation of paclitaxel with cyclodextrins (stability constants); type: physicochemical; conditions: for estimated stability constants for first order complexes of paclitaxel-cyclodextrins / stability constants for second order complexes of paclitaxel-cyclodextrins: water, 37° C.
Procedure: Excess amounts of paclitaxel (5 mg) were added to aqueous solutions containing various concentrations of γ-CD, HPγ-CD, or HPβ-CD and tumbled gently for about 24 hours at 37° C. After equilibration, aliquots of the suspension were filtered through a 0.45 μm membrane filter (Millipore), suitably diluted and analyzed using HPLC. […] Aliquots were taken at various time intervals and assayed for paclitaxel.

[9] = fluorescence assay (square brackets)

Compound: Cc1occc(=O)c1[O-].Cc1occc(=O)c1[O-].[O]=[V+2] [BMOV, Bis[maltolato(oxovanadium)] (IV)]]
antineoplastic effect in vitro [1]: antineoplastic effect of BMOV have been shown in vitro
survival compared to untreated controls ([2]; continuous exposure, 50 μM): 49%
effect on cells ([2]; one hour exposure, up to 50 μM): very little effect
Body weights, Average [3]: 17.87
Body weights, individual mice ([3]; listed as BMOV Solution): 18.4 and 17.3 and 18 and 17.8
rate and extent of solubility, order [4]: V5>BMOV & BEMOV>PRC-V
Tumor weight, Average (MDAY-D2 tumor): 0.15
Tumor weight, individual mice (MDAY-D2 tumor; listed as BMOV solution): 0.04 and 0.4 and 0.12 and 0.07

Compound: CC[C@]1(O)C[C@@H]2CN(CCc3c([nH]c4ccccc34)[C@@](C(=O)OC)(c3cc4c(cc3OC)N(C)[C@H]3[C@@](O)(C(=O)OC)[C@H](OC(C)=O)[C@]5(CC)C=CCN6CC[C@]43[C@@H]65)C2)C1 [Vinblastine, vinblastine]
angiogenesis inhibition on the CAM (CAM; 0.25%, 0.5% and 1% in PCL pellets): effective in inhibiting angiogenesis
drug loading that was toxic to the embryo (CAM): exceeding 2%

Compound: CC[C@]1(O)C[C@H]2CN(CCc3c([nH]c4ccccc34)[C@@](C(=O)OC)(c3cc4c(cc3OC)N(C=O)[C@H]3[C@@](O)(C(=O)OC)[C@H](OC(C)=O)[C@]5(CC)C=CCN6CC[C@]43[C@@H]65)C2)C1 [vincristine]
angiogenesis inhibition on the CAM (CAM; 0.5% and 0.1% drug loading in PCL pellets): all of the CAMs tested
drug loading that was toxic to the embryo (CAM): exceeding 2%

Compound: OC[C@H]1O[C@@H]2O[C@H]3[C@H](O)[C@@H](O)[C@@H](O[C@H]4[C@H](O)[C@@H](O)[C@@H](O[C@H]5[C@H](O)[C@@H](O)[C@@H](O[C@H]6[C@H](O)[C@@H](O)[C@@H](O[C@H]7[C@H](O)[C@@H](O)[C@@H](O[C@H]8[C@H](O)[C@@H](O)[C@@H](O[C@H]9[C@H](O)[C@@H](O)[C@@H](O[C@H]1[C@H](O)[C@H]2O)O[C@@H]9CO)O[C@@H]8CO)O[C@@H]7CO)O[C@@H]6CO)O[C@@H]5CO)O[C@@H]4CO)O[C@@H]3CO [γ-CD, γ-cyclodextrin]
estimated stability constants for first order complexes of paclitaxel-cyclodextrins [8]: 3.1 M⁻¹
stability constants for second order complexes of paclitaxel-cyclodextrins [8]: 785 M⁻¹

The next lines start with the values.

degradation rate constant k (pseudo-first order) ([5]; 1 μg/ml paclitaxel, 1% HPβCD, 55° C.): 0.00338 h⁻¹
degradation rate constant ([5]; 10% HPβCD (FIG. 47 legend: 20 μg ml^−1, 37° C.)): 0.00178 h⁻¹
degradation rate constant ([5]; 10% HPγCD (FIG. 47 legend: 20 μg ml^−1, 37° C.)): 0.00096 h⁻¹
fold increase over the solubility of paclitaxel in water [6]: ~2000 fold
percent of total released from the microspheres [7, 9]: 6%
percent of total released from the microspheres ([7]; uv/vis assay): 10.3%
Compound: CC(=O)O[C@H]1C(=O)[C@@]2(C)[C@H]([C@H](OC(=O)c3ccccc3)[C@]3(O)C[C@H](OC(=O)[C@H](O)[C@@H](NC(=O)c4ccccc4)c4ccccc4)C(C)=C1C3(C)C)[C@]1(OC(C)=O)CO[C@@H]1C[C@@H]2O [paclitaxel]

times lower than the stability constant in the absence of ethanol ([8]; 50% ethanol): about 300 times
apparent stability constant for the complexation with paclitaxel ([8]; in the presence of 50% ethanol): 26.57 M⁻¹
estimated stability constants for first order complexes of paclitaxel-cyclodextrins [8]: 7.2 M⁻¹
stability constants for second order complexes of paclitaxel-cyclodextrins [8]: 7965 M⁻¹
Compound: Hydroxypropyl-β-cyclodextrin [HPβCD]

percent of total released from the microspheres [7, 9]: 60%
percent of total released from the microspheres ([7]; uv/vis assay): 55%
Compound: baccatin

estimated stability constants for first order complexes of paclitaxel-cyclodextrins [8]: 5.8 M⁻¹
stability constants for second order complexes of paclitaxel-cyclodextrins [8]: 1886 M⁻¹
Compound: hydroxypropyl-γ-cyclodextrin [HPγCD]
